Test results: PubChem BioAssay AID1963838 (Molecular Pharmacology Branch, DTP, NCI, 2024)

Test system: 855422-203-R-J1-PDC complex spheroid viability
Assay: Anticancer human tumor 855422-203-R-J1-PDC patient-derived bladder carcinoma cell line growth inhibition [POLQ]
Settings: for IC50: curve of first compound; for viability, T/C: stronger effect = lower value; active = viability on the fitted dose curve at most 10% of control; inactive = the rest
Procedure, shortened: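 Patient-derived tumour cells were co-cultured with HUVEC and mesenchymal stem cells as multicellular spheroids at 37 °C. They were treated with POLQ inhibitors (novobiocin, ART-558, RP6685) alone or combined with other agents. Top concentrations were at or near clinical Cmax (otherwise 10 microM; SN-38 at 1 microM), decreasing in half-log steps.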

[1] = second compound 0.0316 µM, first compound 0.0316 µM
[2] = second compound 0.0316 µM, first compound 0.1 µM
[3] = second compound 0.0316 µM, first compound 0.316 µM
[4] = second compound 0.0316 µM, first compound 1 µM
[5] = second compound 0.0316 µM, first compound 3.16 µM
[6] = second compound 0.0316 µM, first compound 10 µM
[7] = second compound 0.1 µM, first compound 0.0316 µM
[8] = second compound 0.1 µM, first compound 0.1 µM
[9] = second compound 0.1 µM, first compound 0.316 µM
[10] = second compound 0.1 µM, first compound 1 µM
[11] = second compound 0.1 µM, first compound 3.16 µM
[12] = second compound 0.1 µM, first compound 10 µM
[13] = second compound 0.316 µM, first compound 0.0316 µM
[14] = second compound 0.316 µM, first compound 0.1 µM
[15] = second compound 0.316 µM, first compound 0.316 µM
[16] = second compound 0.316 µM, first compound 1 µM
[17] = second compound 0.316 µM, first compound 3.16 µM
[18] = second compound 0.316 µM, first compound 10 µM
[19] = second compound 1 µM, first compound 0.0316 µM
[20] = second compound 1 µM, first compound 0.1 µM
[21] = second compound 1 µM, first compound 0.316 µM
[22] = second compound 1 µM, first compound 1 µM
[23] = second compound 1 µM, first compound 3.16 µM
[24] = second compound 1 µM, first compound 10 µM
[25] = second compound 3.16 µM, first compound 0.0316 µM
[26] = second compound 3.16 µM, first compound 0.1 µM
[27] = second compound 3.16 µM, first compound 0.316 µM
[28] = second compound 3.16 µM, first compound 1 µM
[29] = second compound 3.16 µM, first compound 3.16 µM
[30] = second compound 3.16 µM, first compound 10 µM
[31] = second compound 10 µM, first compound 0.0316 µM
[32] = second compound 10 µM, first compound 0.1 µM
[33] = second compound 10 µM, first compound 0.316 µM
[34] = second compound 10 µM, first compound 1 µM
[35] = second compound 10 µM, first compound 3.16 µM
[36] = second compound 10 µM, first compound 10 µM
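Also: spheroids exposed to compounds for seven days before readout.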

O=c1[nH]cc(F)c(=O)[nH]1 + Cc1cccc(N(C)C(=O)C2C(O)CCN2c2nc(C)cc(C(F)(F)F)c2C#N)c1
605 nM: IC50 (second compound 0.0316 µM)
389 nM: IC50 (second compound 0.1 µM)
387 nM: IC50 (second compound 0.316 µM)
inactive: viability, T/C [1] 133% | viability, T/C [2] 96.3% | viability, T/C [3] 67.1% | viability, T/C [4] 36.8% | viability, T/C [5] 27.6% | viability, T/C [6] 25.7% | viability, T/C [7] 109% | viability, T/C [8] 128% | viability, T/C [9] 54.8% | viability, T/C [10] 33.2% | viability, T/C [11] 26.3% | viability, T/C [12] 24.2% | viability, T/C [13] 115% | viability, T/C [14] 118% | viability, T/C [15] 54.6% | viability, T/C [16] 34.5% | viability, T/C [17] 27.4% | viability, T/C [18] 23.1% | viability, T/C [19] 112% | viability, T/C [20] 107% | viability, T/C [21] 61.1% | viability, T/C [22] 33.7% | viability, T/C [23] 26.6% | viability, T/C [24] 24.1% | viability, T/C [25] 109% | viability, T/C [26] 99.5% | viability, T/C [27] 62.6% | viability, T/C [28] 35.2% | viability, T/C [29] 29.1% | viability, T/C [30] 27% | viability, T/C [31] 109% | viability, T/C [32] 114% | viability, T/C [33] 65.2% | viability, T/C [34] 40.1% | viability, T/C [35] 32.6% | viability, T/C [36] 26.6%
537 nM: IC50 (second compound 3.16 µM)
496 nM: IC50 (second compound 1 µM)
554 nM: IC50 (second compound 10 µM)

CCc1cc2c(N3CCc4c(cc(Cn5ccnc5)cc4-c4cn(C)nc4C(F)(F)F)C3=O)cc(C)nc2c(OC)n1 + Nc1ccc(C#CCN(C(=O)Cc2ncc(C(F)(F)F)cc2C(F)(F)F)c2ccc(F)cc2)nn1
3470 nM: IC50 (second compound 10 µM)
6000 nM: IC50 (second compound 0.0316 µM)
5300 nM: IC50 (second compound 0.1 µM)
5490 nM: IC50 (second compound 0.316 µM)
5250 nM: IC50 (second compound 3.16 µM)
inactive: viability, T/C [1] 133% | viability, T/C [2] 120% | viability, T/C [3] 119% | viability, T/C [4] 93.5% | viability, T/C [5] 66.3% | viability, T/C [6] 37.1% | viability, T/C [7] 131% | viability, T/C [8] 138% | viability, T/C [9] 127% | viability, T/C [10] 96% | viability, T/C [11] 63.5% | viability, T/C [12] 35.5% | viability, T/C [13] 114% | viability, T/C [14] 138% | viability, T/C [15] 108% | viability, T/C [16] 95.8% | viability, T/C [17] 61.5% | viability, T/C [18] 37.4% | viability, T/C [19] 111% | viability, T/C [20] 121% | viability, T/C [21] 111% | viability, T/C [22] 92.2% | viability, T/C [23] 71.5% | viability, T/C [24] 37.1% | viability, T/C [25] 110% | viability, T/C [26] 118% | viability, T/C [27] 133% | viability, T/C [28] 92.5% | viability, T/C [29] 61.2% | viability, T/C [30] 38.6% | viability, T/C [31] 116% | viability, T/C [32] 115% | viability, T/C [33] 98% | viability, T/C [34] 77.4% | viability, T/C [35] 52.2% | viability, T/C [36] 31.7%
6400 nM: IC50 (second compound 1 µM)

C=CC(=O)N1CCN(c2nc(=O)n(-c3c(C)ccnc3C(C)C)c3nc(-c4c(O)cccc4F)c(F)cc23)C(C)C1 (stereo not drawn) + Nc1ccc(C#CCN(C(=O)Cc2ncc(C(F)(F)F)cc2C(F)(F)F)c2ccc(F)cc2)nn1
inactive: viability, T/C [1] 101% | viability, T/C [2] 116% | viability, T/C [3] 120% | viability, T/C [4] 105% | viability, T/C [5] 144% | viability, T/C [6] 214% | viability, T/C [7] 99% | viability, T/C [8] 137% | viability, T/C [9] 107% | viability, T/C [10] 121% | viability, T/C [11] 159% | viability, T/C [12] 235% | viability, T/C [13] 126% | viability, T/C [14] 129% | viability, T/C [15] 121% | viability, T/C [16] 122% | viability, T/C [17] 146% | viability, T/C [18] 176% | viability, T/C [19] 99.4% | viability, T/C [20] 113% | viability, T/C [21] 92.2% | viability, T/C [22] 158% | viability, T/C [23] 120% | viability, T/C [24] 173% | viability, T/C [25] 103% | viability, T/C [26] 121% | viability, T/C [27] 97.2% | viability, T/C [28] 129% | viability, T/C [29] 129% | viability, T/C [30] 175% | viability, T/C [31] 109% | viability, T/C [32] 108% | viability, T/C [33] 99.1% | viability, T/C [34] 117% | viability, T/C [35] 113% | viability, T/C [36] 124%
> 10000 nM: IC50 (second compound 0.0316 µM) | IC50 (second compound 0.1 µM) | IC50 (second compound 0.316 µM) | IC50 (second compound 1 µM) | IC50 (second compound 3.16 µM) | IC50 (second compound 10 µM)

COc1cccc2c1C(=O)c1c(O)c3c(c(O)c1C2=O)CC(O)(C(=O)CO)CC3OC1CC(N)C(O)C(C)O1 (stereo not drawn) + Cc1cccc(N(C)C(=O)C2C(O)CCN2c2nc(C)cc(C(F)(F)F)c2C#N)c1
< 31.6 nM: IC50 (second compound 0.0316 µM) | IC50 (second compound 0.1 µM) | IC50 (second compound 0.316 µM) | IC50 (second compound 1 µM) | IC50 (second compound 3.16 µM) | IC50 (second compound 10 µM)
active: viability, T/C [2] 10.2% | viability, T/C [3] 2.55% | viability, T/C [4] 0.3% | viability, T/C [5] 0.66% | viability, T/C [6] 2.13% | viability, T/C [8] 10.1% | viability, T/C [9] 2.47% | viability, T/C [10] 0.26% | viability, T/C [11] 0.48% | viability, T/C [12] 2.11% | viability, T/C [14] 9.49% | viability, T/C [15] 3.59% | viability, T/C [16] 0.33% | viability, T/C [17] 0.43% | viability, T/C [18] 1.8% | viability, T/C [20] 9.02% | viability, T/C [21] 2.18% | viability, T/C [22] 0.24% | viability, T/C [23] 0.8% | viability, T/C [24] 1.14% | viability, T/C [26] 8.42% | viability, T/C [27] 2.03% | viability, T/C [28] 0.25% | viability, T/C [29] 0.6% | viability, T/C [30] 2.24% | viability, T/C [32] 9.55% | viability, T/C [33] 1.76% | viability, T/C [34] 0.25% | viability, T/C [35] 0.59% | viability, T/C [36] 1.9%
inactive: viability, T/C [1] 16.1% | viability, T/C [7] 15.8% | viability, T/C [13] 16.4% | viability, T/C [19] 14.4% | viability, T/C [25] 14.1% | viability, T/C [31] 13.5%
